One assay deals with human KHK-C (Homo sapiens (Human), UniProt P50053). Nature of the assay: KHK Biochemical Assay (IC50), ADP-Glo, KHK-C. As to conditions: average of at least two separate assays. The essentials:
(§1)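 Luminescent ADP-Glo read-out of ADP made by His-tagged KHK (BL21 (DE3) expression, Ni-NTA). Enzyme and compound sat together 30 min before ATP/fructose addition, then reacted 4 h at RT in Hepes pH 7.4 buffer with KCl, MgCl2, Triton-X. Quench 1 h, detection 1 h.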
Background: In ADP-Glo the light output rises with the ADP produced.

For another assay, the system named is HepG2 cells. Kind of assay: F1P Cell-Based Assay (EC50), 13C6-fructose-1-phosphate in HepG2 cells (cell culture medium or 50% human plasma).
The target in assay [1] is KHK-C expressed in NRK-52E cells (Homo sapiens (Human), UniProt P50053). Kind of assay: KHK-C Cell-based Assay (EC50), NRK CTG, fructose-mediated ATP-depletion.
Protocol: Compounds were tested in a high-throughput 384-well assay format for their ability to attenuate fructose-mediated ATP-depletion in Normal Rat Kidney epithelial cells (NRK-52E) using the Cell-Titer Glo (CTG) assay, which measures cellular ATP levels based on luminescence signal by using the luciferase-luciferin system. Compounds were serially diluted (1:3) in DMSO.
The plates were incubated at 37° C., 5% CO2 for one day. Cells were then transduced on day 2 with 200 MOI of Adenovirus (VQAd KHKC C-(K)-DYK ViraQuest Inc.) using the same medium and method as day-1 to induce KHK-C expression in the cells. Cells were incubated at 37° C., 5% CO2 for one day. On day-3, the medium was changed to DMEM medium (Corning, Catalog #10-014-CM) with 0.5% FBS and Penicillin-Streptomycin after washing the cells twice with sterile PBS on the BioTEK EL406 washer and dispenser. Test compounds were then diluted 200-fold into the assay plates using the BioMek FX and were incubated for 1 hour at 37° C., 5% CO2. 25 mM (final concentration) of fructose was then dispensed into the plates using the BioTEK EL406 dispenser and the plates were incubated at 37° C., 5% CO2 for 48 hours before addition of CTG reagent and measurement of luminescence signal.
The next assay deals with human KHK-A (Homo sapiens (Human), UniProt P50053). Nature of the assay: KHK Biochemical Assay (IC50), ADP-Glo, KHK-A. As to conditions: average of at least two separate assays. The essentials:
as §1

The mark [2] stands for this setting: Homo sapiens, HepG2, HepG2 cells, 50% human plasma, read-out: F1P 50% HP EC50.
Where [3] appears, read: Homo sapiens, HepG2, read-out: F1P 10% FBS EC50, HepG2 cells, cell culture medium (10% FBS).
Where [4] appears, read: read-out: NRK CTG EC50, NRK-52E cells, fructose-mediated ATP-depletion, Cell-Titer Glo.

Read-outs that look alike come from different tables or passages of the source.

Chain of human KHK-C (P50053 whole entry): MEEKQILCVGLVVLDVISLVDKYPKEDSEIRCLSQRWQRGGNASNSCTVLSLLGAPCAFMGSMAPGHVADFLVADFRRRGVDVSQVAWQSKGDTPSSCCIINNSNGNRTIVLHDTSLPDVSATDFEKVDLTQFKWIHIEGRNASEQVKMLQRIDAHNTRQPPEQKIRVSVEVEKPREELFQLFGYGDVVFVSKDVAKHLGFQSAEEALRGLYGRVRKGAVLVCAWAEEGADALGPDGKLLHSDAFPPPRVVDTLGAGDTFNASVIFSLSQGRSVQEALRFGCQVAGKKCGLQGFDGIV
Chain of KHK-C expressed in NRK-52E cells (P50053 whole entry): as above
Chain of human KHK-A (P50053 other isoform, or with tags, fused parts or gaps): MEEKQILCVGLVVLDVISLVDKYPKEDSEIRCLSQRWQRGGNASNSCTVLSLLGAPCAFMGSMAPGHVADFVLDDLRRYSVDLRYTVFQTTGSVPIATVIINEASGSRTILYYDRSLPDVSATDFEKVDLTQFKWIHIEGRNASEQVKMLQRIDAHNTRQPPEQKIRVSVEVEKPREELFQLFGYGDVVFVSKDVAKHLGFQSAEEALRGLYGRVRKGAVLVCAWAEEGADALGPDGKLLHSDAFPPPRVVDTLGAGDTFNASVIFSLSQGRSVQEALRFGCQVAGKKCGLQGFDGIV

For the compound `C[C@H]1[C@H](O)CN1c1nc(-c2cccc([S@](C)(=N)=O)c2)c2c(n1)C(F)(F)CC2` (single isomer, unassigned) [Example 493], inhibition against human KHK-C was half-maximal at 11.7 nM (IC50). The EC50 in the assay with HepG2 cells (setting [2]) was 41.9 nM; in the assay with HepG2 cells (setting [3]), 32.4 nM; in assay [1], 52.7 nM.
The compound `C[C@H]1[C@H](O)CN1c1nc(-c2ccc3c(c2)C(C)(C)C[C@@H]3NS(C)(=O)=O)c2c(n1)C(F)(F)CC2` (single isomer, unassigned) [Example 632] had an IC50 at human KHK-C of 0.5 nM. Moreover, the EC50 is above 500 nM in the assay on HepG2 cells (setting [2]), 10.2 nM in the assay with HepG2 cells (setting [3]) and 10.3 nM in assay [1].
Compound `C[C@H]1[C@H](O)CN1c1nc(-c2ccc3c(c2)[S@@](=N)(=O)CCO3)c2c(n1)C(F)(F)CC2` (single isomer, unassigned) [Example 821] registered an IC50 on human KHK-C (ADP-Glo) of 5 nM. Moreover, the EC50 amounted to 75.4 nM with HepG2 cells (HepG2 cells, 50% human plasma, read-out: F1P 50% HP EC50); 20 nM with HepG2 cells (read-out: F1P 10% FBS EC50, HepG2 cells, cell culture medium (10% FBS)); 42.2 nM in assay [1] (read-out: NRK CTG EC50, NRK-52E cells, Cell-Titer Glo, 25 mM fructose, 48 hours).
`C[C@H]1CCN1c1nc(-c2ccc3c(c2)OCCNC3=O)c2c(n1)C(F)(F)CC2` [Example 165, (S)-8-(7,7-difluoro-2-(2-methylazetidin-1-yl)-6,7-dihydro-5H-cyclopenta[d]pyrimidin-4-yl)-3,4-dihydrobenzo[f][1,4]oxazepin-5(2H)-one]: the IC50 against human KHK-C (ADP-Glo) turned out to be 0.8 nM. The EC50 in the assay with HepG2 cells (setting [2]) stood at 49 nM; in the assay on HepG2 cells (setting [3]), 9.7 nM; in assay [1], 2.3 nM.
Consider `C[C@H]1CCN1c1nc2c(c(-c3ccc(C4(O)CS(=O)(=O)C4)cc3)n1)CCC2` [Example 451, (S)-3-hydroxy-3-(4-(2-(2-methylazetidin-1-yl)-6,7-dihydro-5H-cyclopenta[d]pyrimidin-4-yl)phenyl)thietane 1,1-dioxide], for which inhibition at human KHK-C was half-maximal at 14.1 nM (IC50). Moreover, the EC50 with HepG2 cells (setting [2]) was found to be 333 nM; in the assay on HepG2 cells (setting [3]) it was 77.6 nM; in assay [1], 8.7 nM.
The matching figures for `C[C@H]1CCN1c1nc(-c2ccc3c(c2)OC[C@@H]3NS(C)(=O)=O)c2c(n1)C(F)(F)CC2` [Example 528, N—((R)-6-(7,7-difluoro-2-((S)-2-methylazetidin-1-yl)-6,7-dihydro-5H-cyclopenta[d]pyrimidin-4-yl)-2,3-dihydrobenzofuran-3-yl)methanesulfonamide]: 0.2 nM, 50.2 nM, 2.5 nM and 3.4 nM.
As for `C[C@H]1[C@H](O)CN1c1nc(-c2ccc3c(c2)COCC32CCC(=O)N2)c2c(n1)C(F)(F)CC2` (some centres unmarked) [Example 639], the EC50 in the assay on HepG2 cells (setting [2]) was 190 nM; in the assay on HepG2 cells (setting [3]), 66.3 nM; in assay [1] it was 35 nM.
As to `C[C@H]1CCN1c1nc(-c2ccc(C3(N)CC(F)(F)C3)cc2)c2c(n1)C(F)(F)CC2` [Example 648, 1-[4-[7,7-difluoro-2-[(2S)-2-methylazetidin-1-yl]-5,6-dihydrocyclopenta[d]pyrimidin-4-yl]phenyl]-3,3-difluoro-cyclobutanamine], the midpoint of inhibition on human KHK-C, the IC50, lay at 1.2 nM. Also, the EC50 in the assay with HepG2 cells (setting [2]) is 27.6 nM; in the assay with HepG2 cells (setting [3]), 3.9 nM; in assay [1], 7.1 nM.
As for `C[C@H]1CCN1c1nc(-c2ccc([C@@H](N)C(F)F)cc2)c2c(n1)C(F)(F)CC2` [Example 649, (1R)-1-[4-[7,7-difluoro-2-[(2S)-2-methylazetidin-1-yl]-5,6-dihydrocyclopenta[d]pyrimidin-4-yl]phenyl]-2,2-difluoro-ethanamine], at human KHK-C, the IC50 was found to be 2.4 nM. Also, the EC50 is 57 nM with HepG2 cells (setting [2]), 12.9 nM in the assay with HepG2 cells (setting [3]) and 8.6 nM in assay [1].
Regarding `COc1c(C)cc(-c2nc(N3C[C@@H](O)[C@@H]3C)nc3c2CCC3(F)F)cc1S(C)(=N)=O` (stereo partly drawn) [Example 722, (5-(7,7-difluoro-2-((2S,3R)-3-hydroxy-2-methylazetidin-1-yl)-6,7-dihydro-5H-cyclopenta[d]pyrimidin-4-yl)-2-methoxy-3-methylphenyl)(imino)(methyl)-λ^6-sulfanone], the IC50 on human KHK-C was determined as 5 nM; at human KHK-A, 8 nM. In addition, it took 25.7 nM to reach a half-maximal effect in assay [1] (EC50).
The matching figures for `C[C@H]1CCN1c1nc2c(c(-c3ccc4[nH]nnc4c3)n1)CCC2` [Example 729, (S)-5-(2-(2-methylazetidin-1-yl)-6,7-dihydro-5H-cyclopenta[d]pyrimidin-4-yl)-1H-benzo[d][1,2,3]triazole]: 33.5 nM, 29.1 nM and 273 nM.
As for `NC1(c2ccc(-c3nc(N4CCC4C(F)F)nc4c3CCC4(F)F)cc2)CS(=O)(=O)C1` (centres unmarked) [Example 799, 3-amino-3-(4-(2-(2-(difluoromethyl)azetidin-1-yl)-7,7-difluoro-6,7-dihydro-5H-cyclopenta[d]pyrimidin-4-yl)phenyl)thietane 1,1-dioxide], the IC50 was determined as 1.9 nM against human KHK-C (ADP-Glo) and 16.2 nM on human KHK-A (ADP-Glo). In assay [1], this compound had an EC50 of 21.5 nM.
For the compound `N#CCC(N)c1ccc(-c2nc(N3CC[C@@H]3C(F)(F)F)nc3c2CCC3(F)F)cc1` (stereo partly drawn) [Example 803, 3-amino-3-(4-(7,7-difluoro-2-((R)-2-(trifluoromethyl)azetidin-1-yl)-6,7-dihydro-5H-cyclopenta[d]pyrimidin-4-yl)phenyl)propanenitrile], the IC50 came to 0.5 nM on human KHK-C (ADP-Glo) and 0.8 nM at human KHK-A (ADP-Glo). The compound further registered an EC50 in assay [1] of 11.3 nM.
For the compound `COc1ccc(-c2nc(N3CC[C@@H]3C(F)(F)F)nc3c2CCC3(F)F)cc1[S@@](C)(=N)=O` [Example 825, (S)-(5-(7,7-difluoro-2-((R)-2-(trifluoromethyl)azetidin-1-yl)-6,7-dihydro-5H-cyclopenta[d]pyrimidin-4-yl)-2-methoxyphenyl)(imino)(methyl)-λ^6-sulfanone], the EC50 in the assay with HepG2 cells (setting [2]) worked out at 2.3 nM; in the assay with HepG2 cells (setting [3]) it was 0.9 nM; in assay [1] it was 5.6 nM.
With `C[C@@H]1N(c2nc(-c3ccc4c(c3)OC[C@@]43COC(=O)N3)c3c(n2)C(F)(F)CC3)C[C@@]1(C)O` [Example 829, (3R)-6-[7,7-difluoro-2-[(2S,3R)-3-hydroxy-2,3-dimethyl-azetidin-1-yl]-5,6-dihydrocyclopenta[d]pyrimidin-4-yl]spiro[2H-benzofuran-3,4′-oxazolidine]-2′-one], the IC50 amounted to 1 nM on human KHK-C (ADP-Glo) and 25.8 nM against human KHK-A (ADP-Glo). In addition, the EC50 in assay [1] was 10.4 nM.
On the same counts, the results for `O=C1N[C@@]2(CO1)COc1cc(-c3nc(N4CC[C@@H]4C(F)(F)F)nc4c3CCC4(F)F)ccc12` [Example 830, (R)-6-(7,7-difluoro-2-((R)-2-(trifluoromethyl)azetidin-1-yl)-6,7-dihydro-5H-cyclopenta[d]pyrimidin-4-yl)-2H-spiro[benzofuran-3,4′-oxazolidin]-2′-one] are 0.2 nM, 2 nM and 3.2 nM.
The matching figures for `O=C1N[C@@]2(CO1)COc1cc(-c3nc(N4CCC4C(F)F)nc4c3CCC4(F)F)ccc12` (stereo partly drawn) [Example 831, (3R)-6-(2-(2-(difluoromethyl)azetidin-1-yl)-7,7-difluoro-6,7-dihydro-5H-cyclopenta[d]pyrimidin-4-yl)-2H-spiro[benzofuran-3,4′-oxazolidin]-2′-one]: 0.6 nM, 6.3 nM and 8.7 nM.
For the compound `COc1ccc(-c2nc(N3C[C@@H](O)[C@@H]3C)nc3c2CCC3(F)F)cc1S(=N)(=O)C(F)F` (stereo partly drawn) [Example 832, (2S,3R)-1-[4-[3-(difluoromethylsulfonimidoyl)-4-methoxy-phenyl]-7,7-difluoro-5,6-dihydrocyclopenta[d]pyrimidin-2-yl]-2-methyl-azetidin-3-ol], the IC50 against human KHK-C (ADP-Glo) worked out at 5.7 nM; on human KHK-A (ADP-Glo), 2.5 nM. The midpoint of the response in assay [1], the EC50, lay at 20.5 nM.
On the same counts, the results for `C[C@H]1CCN1c1nc2c(c(-c3cccc(S(=N)(=O)C4CCOCC4)c3)n1)CCC2` (stereo partly drawn) [Example 880, imino(3-(2-((S)-2-methylazetidin-1-yl)-6,7-dihydro-5H-cyclopenta[d]pyrimidin-4-yl)phenyl)(tetrahydro-2H-pyran-4-yl)-λ^6-sulfanone] are 31.6 nM, 22.5 nM and above 100 nM.
Turning to `COc1ccc(-c2nc(N3C[C@@H](O)[C@@H]3C)nc3c2CCC3(F)F)cc1S(C)(=O)=O` [Example 882, (2S,3R)-1-(7,7-difluoro-4-(4-methoxy-3-(methylsulfonyl)phenyl)-6,7-dihydro-5H-cyclopenta[d]pyrimidin-2-yl)-2-methylazetidin-3-ol], the IC50 is 5.1 nM on human KHK-C (ADP-Glo) and 4.5 nM on human KHK-A (ADP-Glo). For the same compound, in assay [1], the EC50 came to 34.6 nM.
For “(S)-6-(2-(2-methylazetidin-1-yl)-6,7-dihydro-5H-cyclopenta[d]pyrimidin-4-yl)pyridine-2-sulfonamide [Example 223]”, the results for the IC50 at human KHK-C (ADP-Glo) and on human KHK-A (ADP-Glo) were 26.9 nM and 33.7 nM, respectively. For the same compound, the EC50 in assay [1] (setting [4]) turned out to be 74.1 nM.
On the same counts, the results for “ethyl N-[[4-[2-[(2S)-2-methylazetidin-1-yl]-6,7-dihydro-5H-cyclopenta[d]pyrimidin-4-yl]phenyl]methyl]carbamate [Example 359]” are 89.7 nM, 72.4 nM and 495 nM.

One may read the IC50 as the concentration that gives 50% inhibition. Low values mean greater potency in that assay, high ones weaker potency in that assay. What is called EC50 is the concentration giving half of the maximal effect.

For the origin of these results see patent US12410160B2 (Gilead Sciences, Inc., priority 2021, dated 2025).
